Here are results for one compound from patent US20110244589A1, “IN-VIVO PLATELET FUNCTION TEST BY ONLINE BLEEDING VOLUME MEASUREMENT” (priority 2009, published 2011).

The structures appear in SMILES notation.

Test [1] has as its system platelet function. Particulars: background statement on the bleeding time test; cited from earlier work.
For test [2], the system named is platelet function. Briefly: bleeding volume test (in-vivo, blotter paper blotch area). Also on record: species or system patient. Particulars: after taking an aspirin, versus before.
Text: Bleeding volume is the volume of blood lost during a bleeding time test. Bleeding time is a total length of time between the moment a standardized tiny superficial incision is made in the skin of a patient and the moment the bleeding stops. […] The blotter paper 14 absorbs the blood 16 oozing out of the incision 18 until the patient 10 stops bleeding. One or more blotter papers 14 may be necessary to absorb all of the blood 16.
The in-vivo bleeding volume test results of the patient 10 is indicative of a patient's excessive bleeding tendencies, platelet function and platelet number.
Referring now to FIG. 1, a medical professional conducts the following procedure on the patient 10 being treated. The conditions for consistent blood flow and clotting may be set up. For example, the incision area may be wiped with alcohol which is allowed to completely dry. The patient may either sit in a chair with the forearm in a comfortable stable position or reclining with the forearm at heart level. A blood pressure (e.g., sphygmomanometer) cuff 26 may be placed on an upper arm 22 of the patient 10. By way of example and not limitation, the blood pressure cuff 26 may be inflated to about 40 mm Hg to regulate a constant venous blood pressure in the forearm 24 of the patient 10. […] A round disc blotter paper 14 typically used for determining bleeding time may be placed at the edge of the incision 18. […]
Test [3] has as its system platelet function. The experiment in a line: bleeding time test (in-vivo). Set-up: species or system patient. The conditions noted are these: after taking an aspirin, versus before.
Text: The bleeding time of a patient, which is the length of time blood continues to flow after the skin of a patient has been punctured or cut, has been used to identify patients having abnormal bleeding tendencies or platelet dysfunction or low number of platelets. The bleeding time test is an in-vivo test which involves making a standardized incision on the skin then applying a round disc of standardized blotter paper to the enlarging blood droplet adjacent to the incision for precisely thirty (30) seconds, then rotating the blotter paper and applying a fresh edge of the disc to the bleeding incision, and repeating this process until bleeding has stopped. The sequential blotches of blood on the blotter paper should not intersect. The total number of dried blotches of blood on the blotter paper divided by the number two (2) gives the duration of bleeding in minutes. […] The conditions for consistent blood flow and clotting may be set up. For example, the incision area may be wiped with alcohol which is allowed to completely dry. […] To calculate the total bleeding time, the number of blotches 28 may be counted and divided by two to arrive at the bleeding time to the nearest thirty (30) second interval. Alternatively, the bleeding time may be calculated with a stopwatch.

`CC(=O)Oc1ccccc1C(=O)O` [aspirin]: the “difference in mean bleeding time of persons who take aspirin and those that take no medication” value in test [1] was at most 2 standard deviations. In test [2], this compound displayed an increases bleeding volume of 400%. Also, the “increase the bleeding time” value in test [3] worked out at 72%.
